What was measured:
[1] = tested on: C4-2B (KD) cells; assay: MTS cell proliferation assay, C4-2B (KD); assay type: cell-based, human; conditions: C4-2B (KD) versus neo-control
Protocol: For example, six thousand (6,000) cells per well may be plated in 96 well plates, which may be cultured in 1% DCC-FBS (dextran-coated, charcoal-treated fetal bovine serum) containing T medium (C4-2B) or serum-free T medium (PC3) with 5% CO2 at 37° C. overnight. Cells may then be treated with anti-β2-M mAbs for 48 h. […] Two to four days post-treatment, cell growth may be determined by MTS assay using the CellTiter96 Aqueous One Solution Cell Proliferation Assay (Promega) according to the manufacturer's instructions.

[2] = tested on: neo-control cells; assay: MTS cell proliferation assay, neo-control cells; assay type: cell-based, human
Protocol: For example, six thousand (6,000) cells per well may be plated in 96 well plates, which may be cultured in 1% DCC-FBS (dextran-coated, charcoal-treated fetal bovine serum) containing T medium (C4-2B) or serum-free T medium (PC3) with 5% CO2 at 37° C. overnight. Cells may then be treated with anti-β2-M mAbs for 48 h. Chemotherapeutic agents, such as PS-341, gemcitabine, cisplatin, doxorubicin, taxotere, or 17-AAG, may then be added to the culture media. Two to four days post-treatment, cell growth may be determined by MTS assay using the CellTiter96 Aqueous One Solution Cell Proliferation Assay (Promega) according to the manufacturer's instructions. Results from these experiments are shown in FIGS. 7-21, with various chemotherapeutic agents.

SMILES | sensitivity to growth inhibition, β2-M knockdown cells compared with neo-control cells [1] | growth inhibition by agent alone ([2]; PS-341 at concentrations of 1 (AM or higher)) | growth inhibition by agent alone ([2]; gemcitabine at lower doses (10 μM or lower))
CC(C)C[C@H](NC(=O)[C@H](Cc1ccccc1)NC(=O)c1cnccn1)B(O)O [PS-341, bortezomib] | more sensitive | effective by itself | 
N.N.[Cl][Pt][Cl] [cisplatin] | more sensitive |  | 
Nc1ccn([C@@H]2O[C@H](CO)[C@@H](O)C2(F)F)c(=O)n1 [gemcitabine] | more sensitive |  | not particularly effective
CC(=O)O[C@@]12CO[C@@H]1C[C@H](O)[C@@]1(C)C(=O)[C@H](O)C3=C(C)[C@@H](OC(=O)[C@H](O)[C@@H](NC(=O)OC(C)(C)C)c4ccccc4)C[C@@](O)([C@@H](OC(=O)c4ccccc4)[C@H]21)C3(C)C [taxotere] | more sensitive |  | 

Reference: US20110142848A1, “ANTI-BETA-2-MICROGLOBULIN AGENTS AND THE USE THEREOF” (priority 2008, published 2011)
